Results taken from ChEMBL document CHEMBL1133204, “Synthesis and biological activities of an alpha-methyl and a beta-methyl carbapenem and the corresponding unsubstituted compound” (Bioorg Med Chem Lett, 2000).

Tests used:
[1] = Half life of hydrolysis of compound at pH 7.4, 37 degree C; type: ADME; conditions: buffer
Beta-lactamase = Beta-lactamase (Enterobacter cloacae, UniProt P05364); assay: Beta-Lactamase inhibition activity after 15 min of pre-incubation with the enzyme isolated from Enterobacter cloacae
Chain of Beta-lactamase (P05364 whole entry): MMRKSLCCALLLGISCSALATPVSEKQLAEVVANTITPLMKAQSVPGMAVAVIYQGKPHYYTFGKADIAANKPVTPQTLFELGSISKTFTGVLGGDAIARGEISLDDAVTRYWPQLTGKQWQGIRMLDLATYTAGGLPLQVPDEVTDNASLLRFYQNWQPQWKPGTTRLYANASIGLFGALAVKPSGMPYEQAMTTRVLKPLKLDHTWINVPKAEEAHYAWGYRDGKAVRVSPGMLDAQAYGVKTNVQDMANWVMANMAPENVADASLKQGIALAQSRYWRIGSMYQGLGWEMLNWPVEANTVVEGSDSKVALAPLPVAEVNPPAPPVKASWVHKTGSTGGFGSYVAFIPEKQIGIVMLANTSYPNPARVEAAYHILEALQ

Beta-lactamase TEM = Beta-lactamase TEM (Escherichia coli, UniProt P62593); assay: Beta-Lactamase inhibition activity after 15 min of pre-incubation with the enzyme isolated from Escherichia coli 205 TEM
Chain of Beta-lactamase TEM (P62593 whole entry): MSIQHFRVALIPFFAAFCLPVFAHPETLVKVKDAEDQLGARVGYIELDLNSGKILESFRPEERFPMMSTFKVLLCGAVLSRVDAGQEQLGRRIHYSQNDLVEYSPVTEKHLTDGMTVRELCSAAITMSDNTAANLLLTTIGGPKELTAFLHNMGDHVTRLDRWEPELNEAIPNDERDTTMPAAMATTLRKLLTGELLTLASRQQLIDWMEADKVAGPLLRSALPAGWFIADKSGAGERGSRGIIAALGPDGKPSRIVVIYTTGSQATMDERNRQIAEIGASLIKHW

Enterococcus sp. = assay: Minimum inhibitory concentration against Enterobacter coccus in DIFCO nutrient agar after 18 hr incubation period at 37 degree C; type: functional
Escherichia coli [2] = assay: Minimum inhibitory concentration against Escherichia coli 1103 in DIFCO nutrient agar after 18 hr incubation period at 37 degree C; type: functional
Escherichia coli [3] = assay: Minimum inhibitory concentration against Escherichia coli 205 TEM in DIFCO nutrient agar after 18 hr incubation period at 37 degree C; type: functional
Enterobacter cloacae = assay: Minimum inhibitory concentration against Enterobacter cloacae in DIFCO nutrient agar after 18 h incubation period at 37 degree C; type: functional
Pseudomonas aeruginosa [4] = assay: Minimum inhibitory concentration against Pseudomonas aeruginosa in DIFCO nutrient agar after 18 hr incubation period at 37 degree C; type: functional
Pseudomonas aeruginosa [5] = assay: Minimum inhibitory concentration against Pseudomonas aeruginosa. res in DIFCO nutrient agar after 18 hr incubation period at 37 degree C; type: functional
Staphylococcus aureus [6] = assay: Minimum inhibitory concentration against Staphylococcus aureus 1104 in DIFCO nutrient agar after 18 hr incubation period at 37 degree C; type: functional
Staphylococcus aureus [7] = assay: Minimum inhibitory concentration against Staphylococcus aureus res in DIFCO nutrient agar after 18 hr incubation period at 37 degree C; type: functional
Staphylococcus aureus [8] = assay: Minimum inhibitory concentration against Staph 25768 in DIFCO nutrient agar after 18 hr incubation period at 37 degree C; type: functional
[9] = Minimum inhibitory concentration against S. Innsbruck in DIFCO nutrient agar after 18 h incubation period at 37 degree C
Staphylococcus aureus [10] = assay: Minimum inhibitory concentration against Staphylococcus aureus in DIFCO nutrient agar after 18 hr incubation period at 37 degree C; type: functional

Compound | half-life [1] | IC50 (Beta-lactamase) | IC50 (Beta-lactamase TEM) | MIC (Enterococcus sp.) | MIC (Escherichia coli [2]) | MIC (Escherichia coli [3]) | MIC (Enterobacter cloacae) | MIC (Pseudomonas aeruginosa [4]) | MIC (Pseudomonas aeruginosa [5]) | MIC (Staphylococcus aureus [6]) | MIC (Staphylococcus aureus [7]) | MIC (Staphylococcus aureus [8]) | MIC [9] | IC50 (Beta-lactamase TEM; read-out: IC50) | MIC (Staphylococcus aureus [10])
COC1=C(C(=O)[O-])N2C(=O)[C@H]([C@@H](C)O)[C@H]2C1.[K+] | 5.75 h | 510 nM | 0.00034 M l-1 | 50 µg/mL | 2 µg/mL | 1 µg/mL | 5 µg/mL | > 50 µg/mL | > 50 µg/mL | 1 µg/mL | 2 µg/mL | 5 µg/mL | 25 µg/mL |  | 
COC1=C(C(=O)[O-])N2C(=O)[C@H]([C@@H](C)O)C2[C@H]1C.[K+] (some centres undefined) | 72 h | 2100 nM |  | > 50 µg/mL | 1 µg/mL | 0.5 µg/mL | 5 µg/mL | > 50 µg/mL | > 50 µg/mL | 25 µg/mL | 25 µg/mL | > 50 µg/mL | > 50 µg/mL | 130 nM | 
COC1=C(C(=O)[O-])N2C(=O)[C@H]([C@@H](C)O)C2[C@@H]1C.[K+] (some centres undefined) | 3.25 h | 82 nM |  | > 50 µg/mL | 10 µg/mL | 5 µg/mL | 25 µg/mL | > 50 µg/mL | > 50 µg/mL | < 0.5 µg/mL |  | 5 µg/mL | > 50 µg/mL | 230 nM | 1 µg/mL
